Assay results taken from patent US20110294843A1, “ADMINISTRATION SCHEME OF POLAR OPIOID METABOLITES FOR POST-OPERATIVE PAIN MANAGEMENT” (PAION UK Limited, priority 2008, published 2011).

Tests used:
[1] = tested on: patients with pain treatment after surgery; experiment: Meta analysis of four clinical studies with M6G pain treatment after surgery
Source text: The four studies M6G001, M6G012, M6G015 and M6G022 are described in the following.
The following variables were included in the meta analysis:
Nausea (none, mild, moderate, severe)
Sedation (none, mild, moderate, severe)
Pain (none, mild, moderate, severe)

[2] = tested on: patients following major abdominal surgery; experiment: M6G022 study: analgesic efficacy and tolerability of M6G and morphine following major abdominal surgery
Experimental: Pain relief, nausea and emesis were recorded for 24 to 48 hours after start of the patient controlled analgesia.
The study site personnel (with the exception of the pharmacy); representatives of the sponsoring company; and the organisation involved in monitoring, data management, or other aspects of the study were blinded to the study treatment. The use of midazolam, temazepam, zopiclone or other short-acting pre-operative anxiolytics was allowed. All patients received a standardised general anaesthetic consisting of propofol induction, with either isoflurane or sevoflurane maintenance. These inhalational agents are associated with a similar risk of PONV. Nitrous oxide was not allowed because of its emetic effects, and the risk of an imbalance in its use. An initial bolus of 1-3 μg/kg of fentanyl or 0.1-0.3 μg/kg of sufentanyl followed by further doses as required, was used for pre- and peri-operative analgesia. Post-operative analgesia was provided by the study drug.
The investigator could administer up to 5 ml of PCA study drug, on no more than two occasions in each 24 hour post-operative period, as rescue medication if the patient was in uncontrolled pain. […] The patients stayed on PCA for a minimum of 24 hours following surgery, but could continue up to 48 hours if clinically indicated.
No prophylactic antiemetic was given, although iv ondansetron (4 mg/2 ml) was available if the patient experienced severe nausea, or immediately following emesis. If this was ineffective further doses of ondansetron; or other agents such as cyclizine, prochlorperazine or perphenazine; were allowed.
Pain intensity at rest was assessed by the patients using the VRS-11 scale at baseline, 15, 30 and 45 minutes and 1, 2, 4, 6, 9, 12, 15, 18, 21 and 24 hours after the start of PCA. A numerical scale was chosen because of the practical difficulty for post-operative patients of completing a visual analogue scale. If the patient remained on PCA after 24 hours, the pain scores were recorded every 8 hours up to 48 hours. In addition, at the end of the study the patients and observers were asked to assess the acceptability of their pain relief over the entire study using a 5 point rating global scale ranging from very poor (1) to excellent (5). […] The total consumption of study drugs was calculated.
Emesis risk factors of female gender; history of motion sickness or PONV; or smoking status were recorded at screening. Post-operative nausea was assessed by the patient using a 4 point ordinal scale (none, mild, moderate, severe) and occurrence of vomiting or dry retching recorded (yes/no; and if yes, the number of episodes) pre-operatively (Day −1), at baseline, and at 1, 2, 4, 6, 9, 12, 15, 18, 21, 24, 32, 40 and 48 hours after administration of the test analgesic. Nausea and vomiting were also combined in a single scoring system (postoperative nausea & vomiting, PONV), with an episode of vomiting or dry retching being scored as a 3 (severe) on the nausea scale.
Sedation was assessed using a combination of a binary question (sleepy, yes or no) and a 3 point ordinal scale (mild, moderate, severe) if the patient was sedated. All adverse events were recorded, along with concomitant medication use, with particular attention being paid to the use of anti-emetics.
The Intention to Treat (ITT) set of patients comprised all those who had been exposed to study medication at least once. This analysis set was the basis for the main efficacy and all safety and demographic analyses. Data were double entered using interactive verification into a CLINTRIAL database (Version 3.3.3, Phase Forward, Waltham, Mass., USA), and analysed using SAS (version 8.2, SAS Institute Inc., Cary, N.C., USA).

## CN1CC[C@]23c4c5ccc(O)c4O[C@H]2[C@@H](O)C=C[C@H]3[C@H]1C5 [Morphine, morphine]
[1]; during first 24 hours
  pain-free time: 9.0 to 10.9 h
[1]; human, in vivo, intravenous
  patients with moderate to severe sedation: 81.4%
[1]; time window 0 to 6 hours
  patients with moderate to severe pain: 54.2%
[1]; time window 6-24 hours
  patients with moderate to severe pain: 34.0%
[1]; worst assessment
  patients with moderate to severe nausea: 32.8%
  patients with vomiting: 36.5%
[2]; 4-48 h
  mean totals of PCA demands: 93.9
[2]; baseline
  patients with sedation score recorded as severe: 28.5%
[2]; baseline (when given control of the PCA button)
  patients sedated: 88.0%
[2]; early post-operative period (up to 4 hours)
  mean totals of PCA demands: 28.8
[2]; loading and recovery doses before PCA
  dose required to achieve comfort initially: 14.4 mg/70 kg
